Key:
HeLa = experiment: Cytotoxicity against human HeLa cells by MTT assay; format: functional, cell-based
[1] = Antioxidant activity assessed as trolox equivalent at 0.1 to 1 uM by ORAC-fluorescein assay; format: functional
[2] = Antioxidant activity assessed as trolox equivalent at 0.3 to 1 uM by ORAC-fluorescein assay; format: functional
[3] = Antioxidant activity assessed as trolox equivalent at 0.25 to 1.5 uM by ORAC-fluorescein assay; format: functional
[4] = Antioxidant activity assessed as trolox equivalent at 0.2 to 0.6 uM by ORAC-fluorescein assay; format: functional
[5] = Antioxidant activity assessed as trolox equivalent at 0.5 to 2.0 uM by ORAC-fluorescein assay; format: functional
[6] = Antioxidant activity assessed as trolox equivalent at 0.1 to 1.5 uM by ORAC-fluorescein assay; format: functional
[7] = Antioxidant activity assessed as trolox equivalent at 0.4 to 1 uM by ORAC-fluorescein assay; format: functional

Structure (SMILES) | IC50 (HeLa) [µM] | Activity [3] | further results
COc1cc(O)c(CC=C(C)C)c(O)c1C(=O)/C=C/c1cc(O)c(O)c(O)c1 | 30.3 | – | Activity [1]: 1.1
COc1cc(/C=C/C(=O)O)ccc1O | – | – | Activity [2]: 4.47
COc1cc(O)c(C(=O)/C=C/c2ccc(O)cc2)c(O)c1CC=C(C)C [XANTHOGALENOL] | 28.3 | 1.8 | –
COc1cc(O)cc(O)c1C(=O)/C=C/c1ccc(O)cc1 [HELICHRYSETIN] | 5.2 | – | Activity [1]: 4.4
O=c1c(O)c(-c2ccc(O)c(O)c2)oc2cc(O)cc(O)c12 | – | – | Activity [4]: 10.5
CC(C)=CCc1c(O)cc(O)c(C(=O)/C=C/c2ccc(O)cc2)c1O [DEMETHYLXANTHOHUMOL] | 16.5 | 3.8 | –
COc1ccc(/C=C/C(=O)c2c(OC)cc(O)c(CC=C(C)C)c2O)cc1OC | 17.1 | – | Activity [5]: 0.9
COc1cc(O)c(CC=C(C)C)c(O)c1C(=O)/C=C/c1cc(O)cc(O)c1 | 3.2 | – | Activity [1]: 2.9
COc1cc(OC)c(C(=O)/C=C/c2ccc(O)cc2)c(O)c1CC=C(C)C | 11.8 | – | Activity [6]: 3.8
COc1cc(O)c(CC=C(C)C)c(O)c1C(=O)/C=C/c1cccc(O)c1 | 4.8 | 2.7 | –
COc1cc(O)c(C(=O)/C=C/c2ccc(O)cc2)c(OC)c1CC=C(C)C | 25.6 | 1.5 | –
COc1cc(O)c(CC=C(C)C)c(O)c1C(=O)/C=C/c1ccccc1O | 5.9 | 2.3 | –
O=C(O)/C=C/c1ccc(O)cc1 | – | – | Activity [7]: 4.51
COc1cc(O)c(CC=C(C)C)c(O)c1C(=O)/C=C/c1ccc(O)c(O)c1 | 2.5 | – | Activity [1]: 3.1
COc1cc(O)c(CC=C(C)C)c(O)c1C(=O)/C=C/c1ccc(O)cc1 [XANTHOHUMOL] | 9.4 | 2.3 | –
COc1cc(O)cc(O)c1C(=O)/C=C/c1ccc(O)c(O)c1 | 14.8 | 3 | –
